Data as given in US12649745B2, “Amino-pyrimidine cyclo-amides” (Hoffmann-La Roche Inc., priority 2020, dated 2026).

target: T1, human Autotaxin (ATX) (Homo sapiens, UniProt Q13822); assay: Human ATX enzyme inhibition assay (LPC substrate, choline oxidase/HRP/Amplex Red coupled format); type: biochemical; settings: recombinant hATX 1 nM, 18:1 LPC 30 μM, fluorescence at 90 mins minus 5 mins
T1 construct: generate a full length human ENPP2 ORF with or without a 3′-6×His tag; 6xHis (C); made in house; host or cells: FreeStyle 293-F cells (transient transfection), purified from culture supernatant
Procedure: Human ATX Enzyme Inhibition Assay
To identify inhibitors of the human Autotaxin (ATX) enzyme an in-vitro biochemical profiling assay has been developed using lysophosphatidylcholine (LPC) as substrate and recombinant enzyme. ATX activity is assayed via a coupled enzyme format where choline produced from LPC hydrolysis is converted to hydrogen peroxide by choline oxidase (CO). Hydrogen peroxide is in turn used as a co-substrate by horseradish peroxidase (HRP) to oxidise Amplex Red® and generate the red-fluorescent product, Resorufin.
50 mM Tris-HCl (pH 8.0); 120 mM NaCl; 20 mM CaCl2; 5 mM KCl; 1 mM MgCl2; 0.01% Triton X-100, sterile-filtered and stored at 4° C.
50 mM Tris-HCl (pH 8.0); 150 mM NaCl
human Autotaxin (hATX): 0.97 mg/ml (9.718 μM) Molecular weight 99817. Working solution of 1.5 μM used in this assay.
100 mM 18:1 LPC dissolved in reagent dilution-buffer.
500 U/ml Choline Oxidase in reagent dilution buffer.
2540 U/ml Horseradish Peroxidase, in reagent dilution buffer (10.95 mg/ml).
20 mM Amplex Red (10-Acetyl-3,7-dihydroxy-phenoxazin) in DMSO.
Black, 384-well plate, black with clear bottom, non-treated surface.
Test compounds are received pre-diluted in DMSO as an 11-point concentration-response (0.5 mM highest concentration; 1 in 3.162 dilution). Test compounds are pre-diluted 1:1 (10 μL compound+10 μL assay buffer) in a 96-well conical bottomed plate prior to use.
ATX is diluted to 2.2 nM in assay buffer. Choline oxidase and horseradish peroxidase are diluted to 7.3 U/ml and 14.7 U/ml, respectively. 18:1 LPC and Amplex Red® are diluted to 110 μM and 183.3 μM, respectively (solution protected from light). 2.2 μL of compound pre-dilution or 50% DMSO is added to the reaction plate followed by 25 μL of ATX or assay buffer (negative control). Assay plate is mixed and incubated at room temperature for 10 mins. 15 μL of choline oxidase/horseradish peroxidase is then added. To initiate the reaction 15 μL of LPC 18:1/Amplex Red is added. Assay plate is mixed and incubated at room temperature in the dark. Fluorescence is measured at 5 mins (for background subtraction) and 90 mins.
Final Assay Concentrations:
Horse Radish Peroxidase: 4 U/ml
Fluorescence at 5-minutes is subtracted from the 90-minute end point data and normalized with respect to the positive control. IC50 values are calculated.
Results in the enzymatic ATX inhibition assay are provided for compounds of formula (I).

| Structure (SMILES) | IC50 [nM] |
| --- | --- |
| N#Cc1cc(Cl)cc2c1C[C@@H](Nc1ncc3c(n1)CN(C(CF)CF)C3=O)C2 [Example 26, (S)-6-chloro-2-((6-(1,3-difluoropropan-2-yl)-5-oxo-6,7-dihydro-5H-pyrrolo[3,4-d]pyrimidin-2-yl)amino)-2,3-dihydro-1H-indene-4-carbonitrile] | 4 |
| N#Cc1cc(Cl)cc2c1C[C@@H](Nc1ncc3c(n1)CCNC3=O)C2 [Example 27, (S)-6-chloro-2-((5-oxo-5,6,7,8-tetrahydropyrido[4,3-d]pyrimidin-2-yl)amino)-2,3-dihydro-1H-indene-4-carbonitrile] | 3 |
| CC1(CN2Cc3nc(N[C@H]4Cc5cc(Cl)cc(C#N)c5C4)ncc3C2=O)COC1 [Example 28, (S)-6-chloro-2-((6-((3-methyloxetan-3-yl)methyl)-5-oxo-6,7-dihydro-5H-pyrrolo[3,4-d]pyrimidin-2-yl)amino)-2,3-dihydro-1H-indene-4-carbonitrile] | 6 |
| N#Cc1cc(Cl)cc2c1C[C@@H](Nc1ncc3c(n1)CCN(C1CCOCC1)C3=O)C2 [Example 29, (S)-6-chloro-2-((5-oxo-6-(tetrahydro-2H-pyran-4-yl)-5,6,7,8-tetrahydropyrido[4,3-d]pyrimidin-2-yl)amino)-2,3-dihydro-1H-indene-4-carbonitrile] | 4 |
| CC(C)N1CCc2nc(N[C@H]3Cc4cc(Cl)cc(C#N)c4C3)ncc2C1=O [Example 30, (S)-6-chloro-2-((6-isopropyl-5-oxo-5,6,7,8-tetrahydropyrido[4,3-d]pyrimidin-2-yl)amino)-2,3-dihydro-1H-indene-4-carbonitrile] | 2 |
| N#Cc1cc(Cl)cc2c1C[C@@H](Nc1ncc3c(n1)CCN(CC1CC1)C3=O)C2 [Example 31, (S)-6-chloro-2-((6-(cyclopropylmethyl)-5-oxo-5,6,7,8-tetrahydropyrido[4,3-d]pyrimidin-2-yl)amino)-2,3-dihydro-1H-indene-4-carbonitrile] | 2 |
| CCN1Cc2nc(N[C@H]3Cc4cc(Cl)cc(C#N)c4C3)ncc2C1=O [Example 33, (S)-6-chloro-2-((6-ethyl-5-oxo-6,7-dihydro-5H-pyrrolo[3,4-d]pyrimidin-2-yl)amino)-2,3-dihydro-1H-indene-4-carbonitrile] | 2 |
| CCN1CCc2nc(N[C@H]3Cc4cc(Cl)cc(C#N)c4C3)ncc2C1=O [Example 34, (S)-6-chloro-2-((6-ethyl-5-oxo-5,6,7,8-tetrahydropyrido[4,3-d]pyrimidin-2-yl)amino)-2,3-dihydro-1H-indene-4-carbonitrile] | 3 |
| N#Cc1cc(Cl)cc2c1C[C@@H](Nc1ncc3c(n1)CNC3=O)C2 [Example 35, (S)-6-chloro-2-((5-oxo-6,7-dihydro-5H-pyrrolo[3,4-d]pyrimidin-2-yl)amino)-2,3-dihydro-1H-indene-4-carbonitrile] | 2 |
| N#Cc1cc(Cl)cc2c1C[C@@H](Nc1ncc3c(n1)CCN(CC(F)(F)F)C3=O)C2 [Example 36, (S)-6-chloro-2-((5-oxo-6-(2,2,2-trifluoroethyl)-5,6,7,8-tetrahydropyrido[4,3-d]pyrimidin-2-yl)amino)-2,3-dihydro-1H-indene-4-carbonitrile] | 3 |
